Columns and labels:
Assay in all cases: relative viability (nuclei count vs DMSO), 5 days (fraction); higher = more cells survive
BEN = tested on: BEN
In short: (§1)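 The day after seeding in 1536-well plates, lung cancer cell lines were treated by pin tool with a single drug, or with a fixed anchor-drug dose together with five library-drug doses (not always all listed) in √10 steps. After 5 days, a combined fix-and-stain solution (final 0.05% Triton X-100, 1% formaldehyde, 1 ug/ml Hoechst) was added. Nuclei counted on 4× images gave relative viability as treated counts over vehicle counts, reported as the median of duplicate plates.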

CAL-12T = tested on: CAL-12T
In short: as §1

COR-L23 = tested on: COR-L23
In short: as §1

HCC-366 = tested on: HCC-366
In short: as §1

LOU-NH91 = tested on: LOU-NH91
In short: as §1

LU99A = tested on: LU99A
In short: as §1

NCI-H1355 = tested on: NCI-H1355
In short: as §1

NCI-H1437 = tested on: NCI-H1437
In short: as §1

NCI-H1563 = tested on: NCI-H1563
In short: as §1

NCI-H1650 = tested on: NCI-H1650
In short: as §1

NCI-H1651 = tested on: NCI-H1651
In short: as §1

NCI-H1734 = tested on: NCI-H1734
In short: as §1

NCI-H1793 = tested on: NCI-H1793
In short: as §1

NCI-H1975 = tested on: NCI-H1975
In short: as §1

NCI-H2023 = tested on: NCI-H2023
In short: as §1

NCI-H2085 = tested on: NCI-H2085
In short: as §1

NCI-H2342 = tested on: NCI-H2342
In short: as §1

NCI-H358 = tested on: NCI-H358
In short: as §1

NCI-H441 = tested on: NCI-H441
In short: as §1

NCI-H460 = tested on: NCI-H460
In short: as §1

NCI-H838 = tested on: NCI-H838
In short: as §1

SK-LU-1 = tested on: SK-LU-1
In short: as §1

O=c1cc(-c2cccc3c2Sc2ccccc2S3)oc(N2CCOCC2)c1 + Cc1nc(Nc2ncc(C(=O)Nc3c(C)cccc3Cl)s2)cc(N2CCN(CCO)CC2)n1 [Dasatinib] (partner 0.075 µM)
relative viability (BEN; first compound 0.08 µM): 0.284
relative viability (BEN; first compound 0.253 µM): 0.353
relative viability (BEN; first compound 0.8 µM): 0.284
relative viability (BEN; first compound 2.53 µM): 0.318
relative viability (BEN; first compound 8 µM): 0.351
relative viability (CAL-12T; first compound 0.08 µM): 0.339
relative viability (CAL-12T; first compound 0.253 µM): 0.415
relative viability (CAL-12T; first compound 0.8 µM): 0.298
relative viability (CAL-12T; first compound 2.53 µM): 0.34
relative viability (CAL-12T; first compound 8 µM): 0.27
relative viability (COR-L23; first compound 0.08 µM): 0.564
relative viability (COR-L23; first compound 0.253 µM): 0.589
relative viability (COR-L23; first compound 0.8 µM): 0.571
relative viability (COR-L23; first compound 2.53 µM): 0.58
relative viability (COR-L23; first compound 8 µM): 0.504
relative viability (HCC-366; first compound 0.08 µM): 0.633
relative viability (HCC-366; first compound 0.253 µM): 0.718
relative viability (HCC-366; first compound 0.8 µM): 0.547
relative viability (HCC-366; first compound 2.53 µM): 0.666
relative viability (HCC-366; first compound 8 µM): 0.767
relative viability (LOU-NH91; first compound 0.08 µM): 0.589
relative viability (LOU-NH91; first compound 0.253 µM): 0.558
relative viability (LOU-NH91; first compound 0.8 µM): 0.523
relative viability (LOU-NH91; first compound 2.53 µM): 0.519
relative viability (LOU-NH91; first compound 8 µM): 0.559
relative viability (LU99A; first compound 0.08 µM): 0.759
relative viability (LU99A; first compound 0.253 µM): 0.61
relative viability (LU99A; first compound 0.8 µM): 0.587
relative viability (LU99A; first compound 2.53 µM): 0.754
relative viability (LU99A; first compound 8 µM): 0.631
relative viability (NCI-H1355; first compound 0.08 µM): 0.754
relative viability (NCI-H1355; first compound 0.253 µM): 0.619
relative viability (NCI-H1355; first compound 0.8 µM): 0.488
relative viability (NCI-H1355; first compound 2.53 µM): 0.615
relative viability (NCI-H1355; first compound 8 µM): 0.694
relative viability (NCI-H1437; first compound 0.08 µM): 0.435
relative viability (NCI-H1437; first compound 0.253 µM): 0.488
relative viability (NCI-H1437; first compound 0.8 µM): 0.401
relative viability (NCI-H1437; first compound 2.53 µM): 0.339
relative viability (NCI-H1437; first compound 8 µM): 0.423
relative viability (NCI-H1563; first compound 0.08 µM): 0.473
relative viability (NCI-H1563; first compound 0.253 µM): 0.454
relative viability (NCI-H1563; first compound 0.8 µM): 0.437
relative viability (NCI-H1563; first compound 2.53 µM): 0.366
relative viability (NCI-H1563; first compound 8 µM): 0.467
relative viability (NCI-H1650; first compound 0.08 µM): 0.327
relative viability (NCI-H1650; first compound 0.253 µM): 0.339
relative viability (NCI-H1650; first compound 0.8 µM): 0.259
relative viability (NCI-H1650; first compound 2.53 µM): 0.241
relative viability (NCI-H1650; first compound 8 µM): 0.267
relative viability (NCI-H1651; first compound 0.08 µM): 0.401
relative viability (NCI-H1651; first compound 0.253 µM): 0.457
relative viability (NCI-H1651; first compound 0.8 µM): 0.392
relative viability (NCI-H1651; first compound 2.53 µM): 0.312
relative viability (NCI-H1651; first compound 8 µM): 0.387
relative viability (NCI-H1734; first compound 0.08 µM): 0.469
relative viability (NCI-H1734; first compound 0.253 µM): 0.49
relative viability (NCI-H1734; first compound 0.8 µM): 0.503
relative viability (NCI-H1734; first compound 8 µM): 0.513
relative viability (NCI-H1793; first compound 0.08 µM): 0.379
relative viability (NCI-H1793; first compound 0.253 µM): 0.441
relative viability (NCI-H1793; first compound 0.8 µM): 0.335
relative viability (NCI-H1793; first compound 2.53 µM): 0.379
relative viability (NCI-H1793; first compound 8 µM): 0.386
relative viability (NCI-H1975; first compound 0.08 µM): 0.355
relative viability (NCI-H1975; first compound 0.253 µM): 0.35
relative viability (NCI-H1975; first compound 0.8 µM): 0.219
relative viability (NCI-H1975; first compound 2.53 µM): 0.239
relative viability (NCI-H1975; first compound 8 µM): 0.326
relative viability (NCI-H2023; first compound 0.08 µM): 0.537
relative viability (NCI-H2023; first compound 0.253 µM): 0.679
relative viability (NCI-H2023; first compound 0.8 µM): 0.498
relative viability (NCI-H2023; first compound 2.53 µM): 0.48
relative viability (NCI-H2023; first compound 8 µM): 0.405
relative viability (NCI-H2085; first compound 0.08 µM): 0.222
relative viability (NCI-H2085; first compound 0.253 µM): 0.238
relative viability (NCI-H2085; first compound 0.8 µM): 0.225
relative viability (NCI-H2085; first compound 2.53 µM): 0.241
relative viability (NCI-H2085; first compound 8 µM): 0.236
relative viability (NCI-H2342; first compound 0.08 µM): 0.312
relative viability (NCI-H2342; first compound 0.253 µM): 0.309
relative viability (NCI-H2342; first compound 0.8 µM): 0.304
relative viability (NCI-H2342; first compound 2.53 µM): 0.262
relative viability (NCI-H2342; first compound 8 µM): 0.336
relative viability (NCI-H358; first compound 0.08 µM): 0.145
relative viability (NCI-H358; first compound 0.253 µM): 0.163
relative viability (NCI-H358; first compound 0.8 µM): 0.148
relative viability (NCI-H358; first compound 2.53 µM): 0.152
relative viability (NCI-H358; first compound 8 µM): 0.189
relative viability (NCI-H441; first compound 0.08 µM): 0.599
relative viability (NCI-H441; first compound 0.253 µM): 0.586
relative viability (NCI-H441; first compound 0.8 µM): 0.7
relative viability (NCI-H441; first compound 2.53 µM): 0.502
relative viability (NCI-H441; first compound 8 µM): 0.658
relative viability (NCI-H460; first compound 0.08 µM): 0.454
relative viability (NCI-H460; first compound 0.253 µM): 0.619
relative viability (NCI-H460; first compound 0.8 µM): 0.436
relative viability (NCI-H460; first compound 2.53 µM): 0.408
relative viability (NCI-H460; first compound 8 µM): 0.55
relative viability (NCI-H838; first compound 0.08 µM): 0.273
relative viability (NCI-H838; first compound 0.253 µM): 0.283
relative viability (NCI-H838; first compound 0.8 µM): 0.276
relative viability (NCI-H838; first compound 2.53 µM): 0.278
relative viability (NCI-H838; first compound 8 µM): 0.273
relative viability (SK-LU-1; first compound 0.08 µM): 0.156
relative viability (SK-LU-1; first compound 0.253 µM): 0.17
relative viability (SK-LU-1; first compound 0.8 µM): 0.205
relative viability (SK-LU-1; first compound 2.53 µM): 0.18
relative viability (SK-LU-1; first compound 8 µM): 0.182
